A short description of data set [1]: Toxicity in NAMPT inhibitor 10 mg/kg, ip bid FK866 treated SCID mouse xenografted with human NAMALWA cells assessed as induction of obvious signs of clinical toxicity at 35 mg/kg, ip bid up to 45 days. Format: organism-based. The settings on record: in vivo, 1080 h.
In the next data set the test system is NAMALVA. As to the kind of experiment: Potentiation of NAMPT inhibitor 10 mg/kg, ip bid FK866-induced antitumor activity in human NAMALWA cells xenografted in SCID mouse assessed as increase in mouse survival at 35 mg/kg, ip bid up to 45 days. The class given is functional, organism-based.
For data set [2], the target named is T1, Nicotinate phosphoribosyltransferase (Homo sapiens) (UniProt Q6XQN6).
T1 sequence (whole entry): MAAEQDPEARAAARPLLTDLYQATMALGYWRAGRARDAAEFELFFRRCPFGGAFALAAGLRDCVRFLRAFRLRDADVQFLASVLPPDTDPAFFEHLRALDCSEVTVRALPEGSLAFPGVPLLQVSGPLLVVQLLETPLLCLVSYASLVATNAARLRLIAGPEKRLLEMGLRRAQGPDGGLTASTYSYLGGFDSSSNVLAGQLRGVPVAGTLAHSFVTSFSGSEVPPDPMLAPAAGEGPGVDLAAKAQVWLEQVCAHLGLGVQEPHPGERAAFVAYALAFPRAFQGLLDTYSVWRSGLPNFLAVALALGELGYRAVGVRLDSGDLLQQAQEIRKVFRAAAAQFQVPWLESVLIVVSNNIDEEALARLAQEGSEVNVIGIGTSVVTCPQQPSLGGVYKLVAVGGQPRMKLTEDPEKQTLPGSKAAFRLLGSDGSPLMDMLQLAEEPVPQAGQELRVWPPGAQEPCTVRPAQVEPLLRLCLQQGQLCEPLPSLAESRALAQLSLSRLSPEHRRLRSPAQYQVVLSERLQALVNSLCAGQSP
As to the kind of experiment: Inhibition of NAPRT in human OVCAR5 cells assessed as potentiation of NAMPT inhibitor FK866-induced cytotoxicity by measuring reduction in cell viability at 300 uM to 1 mM incubated for 72 hrs by SRB assay. Format: cell-based.

Activity calls are given as the source filed them. The rule behind the calls is not given here.

As for `CC(=O)Oc1ccccc1C(=O)O` [ASPIRIN], the Activity result in data set [1] is recorded as “Non-Toxic”. The result in the data set on NAMALVA was Active. Turning to `O=C(O)c1ccccc1O`, in data set [2], the inhibition entry is “Active”.
